# What was measured:
# Format in all cases: functional
# HL-60(TB) = experiment: Anticancer activity against human HL-60(TB) cells after 48 hrs by sulforhodamine B assay
# K562 = experiment: Anticancer activity against human K562 cells after 48 hrs by sulforhodamine B assay
# MOLT-4 = experiment: Anticancer activity against human MOLT4 cells after 48 hrs by sulforhodamine B assay
# [1] = Anticancer activity against human […] cells after 48 hrs by sulforhodamine B assay
# SR = experiment: Anticancer activity against human SR cells after 48 hrs by sulforhodamine B assay
# A549 = experiment: Anticancer activity against human A549 cells after 48 hrs by sulforhodamine B assay
# HOP-92 = experiment: Anticancer activity against human HOP92 cells after 48 hrs by sulforhodamine B assay
# NCI-H23 = experiment: Anticancer activity against human NCI-H23 cells after 48 hrs by sulforhodamine B assay
# NCI-H322M = experiment: Anticancer activity against human NCI-H322M cells after 48 hrs by sulforhodamine B assay
# COLO 205 = experiment: Anticancer activity against human COLO205 cells after 48 hrs by sulforhodamine B assay
# HCC 2998 = experiment: Anticancer activity against human HCC2998 cells after 48 hrs by sulforhodamine B assay
# HCT-116 = experiment: Anticancer activity against human HCT116 cells after 48 hrs by sulforhodamine B assay
# HCT-15 = experiment: Anticancer activity against human HCT15 cells after 48 hrs by sulforhodamine B assay
# HT-29 = experiment: Anticancer activity against human HT-29 cells after 48 hrs by sulforhodamine B assay
# KM12 = experiment: Anticancer activity against human KM12 cells after 48 hrs by sulforhodamine B assay
# SF-539 = experiment: Anticancer activity against human SF539 cells after 48 hrs by sulforhodamine B assay
# U-251 = experiment: Anticancer activity against human U251 cells after 48 hrs by sulforhodamine B assay
# Malme-3M = experiment: Anticancer activity against human MALME-3M cells after 48 hrs by sulforhodamine B assay
# M14 = experiment: Anticancer activity against human M14 cells after 48 hrs by sulforhodamine B assay
# SK-MEL-28 = experiment: Anticancer activity against human SK-MEL-28 cells after 48 hrs by sulforhodamine B assay
# IGROV-1 = experiment: Anticancer activity against human IGROV1 cells after 48 hrs by sulforhodamine B assay; conditions: IGROV-1, 48 h
# OVCAR-5 = experiment: Anticancer activity against human OVCAR5 cells after 48 hrs by sulforhodamine B assay
# OVCAR-8 = experiment: Anticancer activity against human OVCAR8 cells after 48 hrs by sulforhodamine B assay
# SK-OV-3 = experiment: Anticancer activity against human SKOV3 cells after 48 hrs by sulforhodamine B assay
# ACHN = experiment: Anticancer activity against human ACHN cells after 48 hrs by sulforhodamine B assay
# RXF 393 = experiment: Anticancer activity against human RXF393 cells after 48 hrs by sulforhodamine B assay
# SN12C = experiment: Anticancer activity against human SN12C cells after 48 hrs by sulforhodamine B assay
# TK-10 = experiment: Anticancer activity against human TK10 cells after 48 hrs by sulforhodamine B assay
# MCF7 = experiment: Anticancer activity against human MCF7 cells after 48 hrs by sulforhodamine B assay
# MDA-MB-435 = experiment: Anticancer activity against human MDA-MB-435 cells after 48 hrs by sulforhodamine B assay
# BT-549 = experiment: Anticancer activity against human BT549 cells after 48 hrs by sulforhodamine B assay
# MDA-MB-468 = experiment: Anticancer activity against human MDA-MB-468 cells after 48 hrs by sulforhodamine B assay
# [2] = read-out: LC50 (the source's name)
smiles,measurement,setting,value
CCCCCCCCCCCC[n+]1ccn(C)c1.F[B-](F)(F)F,GI50,HL-60(TB),0.324 µM
same,CC50,HL-60(TB); [2],9.93 µM
same,GI50,K562,0.363 µM
same,GI50,MOLT-4,2.58 µM
same,GI50,[1],0.312 µM
same,CC50,[1]; [2],9.48 µM
same,GI50,SR,1.06 µM
same,CC50,SR; [2],> 100 µM
same,GI50,A549,7.14 µM
same,GI50,HOP-92,7.84 µM
same,GI50,NCI-H23,2.44 µM
same,GI50,NCI-H322M,24.6 µM
same,GI50,COLO 205,3.41 µM
same,GI50,HCC 2998,4.18 µM
same,GI50,HCT-116,2.36 µM
same,GI50,HCT-15,18.1 µM
same,GI50,HT-29,2.19 µM
same,GI50,KM12,1.85 µM
same,CC50,KM12; [2],23 µM
same,GI50,SF-539,2.88 µM
same,GI50,U-251,2.81 µM
same,GI50,Malme-3M,5.06 µM
same,GI50,M14,4.15 µM
same,GI50,SK-MEL-28,10.1 µM
same,GI50,IGROV-1,0.533 µM
same,CC50,IGROV-1; [2],> 100 µM
same,GI50,OVCAR-5,7.49 µM
same,GI50,OVCAR-8,3.25 µM
same,GI50,SK-OV-3,5.97 µM
same,GI50,ACHN,10 µM
same,GI50,RXF 393,6.52 µM
same,GI50,SN12C,3.35 µM
same,GI50,TK-10,2.04 µM
same,GI50,MCF7,1.95 µM
same,GI50,MDA-MB-435,2.15 µM
same,CC50,MDA-MB-435; [2],77.5 µM
same,GI50,BT-549,2.38 µM
same,CC50,BT-549; [2],51.9 µM
same,GI50,MDA-MB-468,0.556 µM

# From ChEMBL document CHEMBL1153245, “A profile of the in vitro anti-tumor activity of imidazolium-based ionic liquids” (2010)
